Reference: ChEMBL document CHEMBL1134583, “Synthesis and biological activity of D- and L-chiro-inositol 2,3,4,5-tetrakisphosphate: design of a novel and potent inhibitor of Ins(3,4,5,6)P4 1-kinase/Ins(1,3,4)P3 5/6-kinase” (J Med Chem, 2001)
Where “and” joins values, the source holds several entries; their conditions need not be identical. Equal entries are not always repeated.

Key:
[1] = Inhibition against Inositol (3,4,5,6)P4 1-kinase from bovine aorta; parameters: species or system Bos taurus
[2] = Inhibition of Inositol (3,4,5,6)P4 1-kinase from bovine aorta; parameters: species or system Bos taurus

SMILES | IC50 [1] | IC50 [2] [µM]
O=P(O)(O)OC1C(OP(=O)(O)O)[C@H](O)[C@H](O)C(OP(=O)(O)O)[C@@H]1O (stereo not given in full) | 0.17 µM and 0.2 µM | 0.28
O=P(O)(O)OC1[C@H](O)C(O)C(OP(=O)(O)O)[C@H](O)[C@@H]1OP(=O)(O)O (stereo not given in full) | > 30 µM | –
O=P(O)(O)OC1C(O)[C@H](O)[C@H](OP(=O)(O)O)C(OP(=O)(O)O)[C@@H]1O (stereo not given in full) | 17 µM | –
O=P(O)(O)O[C@@H]1[C@@H](OP(=O)(O)O)[C@@H](OP(=O)(O)O)[C@H](O)[C@@H](O)[C@@H]1OP(=O)(O)O | > 30 µM | –
O=P(O)(O)O[C@@H]1[C@@H](OP(=O)(O)O)[C@@H](OP(=O)(O)O)[C@@H](O)[C@@H](O)[C@@H]1OP(=O)(O)O | > 30 µM | –
O=P(O)(O)O[C@H]1[C@H](O)[C@@H](OP(=O)(O)O)[C@H](OP(=O)(O)O)[C@@H](OP(=O)(O)O)[C@H]1O (stereo in doubt; 13) | 16.7 µM | –
O=P(O)(O)O[C@@H]1[C@H](O)[C@H](O)[C@@H](OP(=O)(O)O)[C@H](OP(=O)(O)O)[C@H]1O [INS(1,4,5)P3] | 48 µM | –
O=P(O)(O)OC1C(OP(=O)(O)O)[C@H](OP(=O)(O)O)[C@H](OP(=O)(O)O)C(OP(=O)(O)O)[C@@H]1O (stereo not given in full) [IONOSITOL (1,3,4,5,6) P5] | 15 µM | –

Other lines, results leading:

IC50 [1] | IC50 [2] [µM] | SMILES
0.7 µM | – | O=P(O)(O)OC1C(OP(=O)(O)O)[C@H](O)[C@H](OP(=O)(O)O)C(O)[C@@H]1O (stereo not given in full)
4.2 µM | – | O=P(O)(O)OC1C(OP(=O)(O)O)[C@H](OP(=O)(O)O)[C@H](O)C(O)[C@@H]1O (stereo not given in full)
14.5 µM | – | O=P(O)(O)OC1C(OP(=O)(O)O)[C@@H](O)[C@H](OP(=O)(O)O)C(OP(=O)(O)O)[C@@H]1O (stereo not given in full)
1.5 µM | – | O=P(O)(O)O[C@H]1[C@H](OP(=O)(O)O)[C@@H](OP(=O)(O)O)[C@@H](O)[C@H](O)[C@H]1OP(=O)(O)O (stereo in doubt; 3)
1.6 µM | – | O=P(O)(O)O[C@H]1[C@H](OP(=O)(O)O)[C@@H](OP(=O)(O)O)[C@@H](O)[C@H](O)[C@H]1OP(=O)(O)O (stereo in doubt; 12)
9 µM | – | O=P(O)(O)O[C@H]1[C@H](O)[C@@H](OP(=O)(O)O)[C@H](OP(=O)(O)O)[C@@H](OP(=O)(O)O)[C@H]1O (stereo in doubt; 14)
